Source: a flash point compilation (Sun et al. 2020)
Where a name gives a salt, the structure may show the parent alone.

In the case of `O=C(OCC1CO1)C1CCCCC1C(=O)OCC1CO1` (configuration not stated) [bis(oxiran-2-ylmethyl) cyclohexane-1,2-dicarboxylate], the flash point is reported as 190.00 °C.
`C=CCOC(=O)c1ccccc1C(=O)OCC=C` [bis(prop-2-enyl) benzene-1,2-dicarboxylate] gave a flash point of 110.00 °C.
For `Brc1ccccc1` [bromobenzene], the flash point was 51.00 °C.
`OCC#CCO` [but-2-yne-1,4-diol] gave a flash point of 128.00 °C.
`CCCCO.[Ti]` [butan-1-ol;titanium] showed a flash point of 77.00 °C.
`CCCC[O-].CCCC[O-].CCCC[O-].CCCC[O-].[Ti+4]` [butan-1-olate;titanium(4+)] gave a flash point of 77.00 °C.
`CCCC=O` [butanal] showed a flash point of -7.00 °C.
With `CC(O)CCO` (configuration not stated) [butane-1,3-diol] the flash point was 121.00 °C.
For `CC(O)C(C)O` (configuration not stated) [butane-2,3-diol], the flash point was 85.00 °C.
`CCC(C)S` (configuration not stated) [butane-2-thiol] showed a flash point of -23.00 °C.
`CCCC` [butane] showed a flash point of -60.00 °C.
Compound `CCCC#N` [butanenitrile] has a flash point of 17.00 °C.
Compound `CCCC(=O)O` [butanoic acid] has a flash point of 77.00 °C.
In the case of `CCCC(=O)OC(=O)CCC` [butanoyl butanoate], the flash point is reported as 82.00 °C.
For `C=C(C)C(=O)OCCCC` [butyl 2-methylprop-2-enoate], the flash point was 52.00 °C.
In the case of `CCCCOC(=O)c1ccc(O)cc1` [butyl 4-hydroxybenzoate], the flash point is reported as 181.00 °C.
For `CCCCOC(=O)[C@@H](C)Oc1ccc(Oc2ccc(C#N)cc2F)cc1` [butyl (2R)-2-[4-(4-cyano-2-fluorophenoxy)phenoxy]propanoate], the flash point was 122.00 °C.
`CCCCOC(=O)CCC` [butyl butanoate] showed a flash point of 53.00 °C.
`CCCCCCCCCCCCCCCCCC(=O)OCCCC` [butyl octadecanoate] gave a flash point of 160.00 °C.
For `CCCC[Si](Cl)(Cl)Cl` [butyl(trichloro)silane], the flash point was 52.00 °C.
Work on `CCC[CH2][Sn]([Cl])([Cl])[Cl]` [butyl(trichloro)stannane] yielded a flash point of 81.00 °C.
`C[CH2][Al]([Cl])[CH2]C.C[CH2][Al]([Cl])[Cl]` [chloro(diethyl)alumane;dichloro(ethyl)alumane] showed a flash point of -20.00 °C.
Work on `C[CH2][Al]([Cl])[CH2]C` [chloro(diethyl)alumane] yielded a flash point of -23.00 °C.
Work on `Clc1ccccc1` [chlorobenzene] yielded a flash point of 24.00 °C.
`CCCCCCCCCCCCCCCCCC(=O)[O-].[Cl-].[Cl-].[Cl-].[Cl-].[Cr+3].[Cr+3].[OH-]` [chromium(3+);octadecanoate;tetrachloride;hydroxide] showed a flash point of 2.00 °C.
`C1CCCCCC1` [cycloheptane] gave a flash point of 6.00 °C.
`O=CC1CC=CCC1` (configuration not stated) [cyclohex-3-ene-1-carbaldehyde] gave a flash point of 57.00 °C.
`NC1CCCCC1` [cyclohexanamine] showed a flash point of 31.00 °C.
For `OC1CCCCC1` [cyclohexanol], the flash point was 68.00 °C.
With `CC(=O)OC1CCCCC1` [cyclohexyl acetate] the flash point was 58.00 °C.
`[C-]1=CC=CC1.[C-]1=CC=CC1.[Ni+2]` [cyclopenta-1,3-diene;nickel(2+)] gave a flash point of 4.00 °C.
With `C1=CCC=C1.C1=CCC=C1.[Ni]` [cyclopenta-1,3-diene;nickel] the flash point was 4.00 °C.
Compound `OC1CCCC1` [cyclopentanol] has a flash point of 51.00 °C.
`O=C1CCCC1` [cyclopentanone] showed a flash point of 30.00 °C.
Work on `C1=CCCC1` [cyclopentene] yielded a flash point of -34.00 °C.
Compound `CCCCCCCCCC` [decane] has a flash point of 46.00 °C.
In the case of `C=CC(=O)OCCCCCCCCCC` [decyl prop-2-enoate], the flash point is reported as 127.00 °C.
In the case of `CCCCOC(=O)CCC(=O)OCCCC` [dibutyl butanedioate], the flash point is reported as 135.00 °C.
For `CC[Si](Cl)(Cl)CC` [dichloro(diethyl)silane], the flash point was 24.00 °C.
Work on `ClC(Cl)c1ccccc1` [dichloromethylbenzene] yielded a flash point of 92.00 °C.
In the case of `O=C(OC1CCCCC1)c1ccccc1C(=O)OC1CCCCC1` [dicyclohexyl benzene-1,2-dicarboxylate], the flash point is reported as 207.00 °C.
For `CCOC(=O)/C=C/C(=O)OCC` [diethyl (E)-but-2-enedioate], the flash point was 104.00 °C.
`CCOC(=O)c1ccccc1C(=O)OCC` [diethyl benzene-1,2-dicarboxylate] gave a flash point of 140.00 °C.
In the case of `CCOC(=O)CCC(=O)OCC` [diethyl butanedioate], the flash point is reported as 90.00 °C.
`CCOC(=O)OCC` [diethyl carbonate] gave a flash point of 25.00 °C.
`CCOC(=O)C(=O)OCC` [diethyl oxalate] showed a flash point of 76.00 °C.
Work on `CCOS(=O)(=O)OCC` [diethyl sulfate] yielded a flash point of 104.00 °C.
With `CCCCCCCOC(=O)c1ccccc1C(=O)OCCCCCCC` [diheptyl benzene-1,2-dicarboxylate] the flash point was 224.00 °C.
In the case of `COCOC` [dimethoxymethane], the flash point is reported as -18.00 °C.
`COC(=O)CCC(=O)OC` [dimethyl butanedioate] gave a flash point of 85.00 °C.
In the case of `COC(=O)CCCC(=O)OC` [dimethyl pentanedioate], the flash point is reported as 103.00 °C.
In the case of `COS(=O)(=O)OC` [dimethyl sulfate], the flash point is reported as 83.00 °C.
In the case of `CN(C)C(=S)SSC(=S)N(C)C` [dimethylcarbamothioylsulfanyl N,N-dimethylcarbamodithioate], the flash point is reported as 138.00 °C.
`CN(C)C#N` [dimethylcyanamide] gave a flash point of 71.00 °C.
With `CCCCCCCCOP(=O)(O)OCCCCCCCC` [dioctyl hydrogen phosphate] the flash point was 196.00 °C.
Work on `CCCCCCCCCCCCCCCCCCCCCC` [docosane] yielded a flash point of 113.00 °C.
For `CCCCCCCCCCCCN` [dodecan-1-amine], the flash point was 178.00 °C.
Compound `CCCCCCCCCCCC(=O)O` [dodecanoic acid] has a flash point of 113.00 °C.
Compound `CCO` [ethanol] has a flash point of 13.00 °C.
In the case of `C=C` [ethene], the flash point is reported as -136.00 °C.
`CCOc1ccccc1` [ethoxybenzene] gave a flash point of 63.00 °C.
Compound `CCOC(=O)CBr` [ethyl 2-bromoacetate] has a flash point of 48.00 °C.
Compound `C=C(C#N)C(=O)OCC` [ethyl 2-cyanoprop-2-enoate] has a flash point of 82.00 °C.
With `CCOC(=O)C(C)O` (configuration not stated) [ethyl 2-hydroxypropanoate] the flash point was 46.00 °C.
Compound `C=C(C)C(=O)OCC` [ethyl 2-methylprop-2-enoate] has a flash point of 16.00 °C.
`CCOC(=O)CC(C)O` (configuration not stated) [ethyl 3-hydroxybutanoate] showed a flash point of 64.00 °C.
For `CCOC(=O)C#Cc1ccccc1` [ethyl 3-phenylprop-2-ynoate], the flash point was 113.00 °C.
For `CCOS(=O)(=O)c1ccc(C)cc1` [ethyl 4-methylbenzenesulfonate], the flash point was 158.00 °C.
In the case of `CCOC(=O)NC` [ethyl N-methylcarbamate], the flash point is reported as 73.00 °C.
Compound `CCCC(=O)OCC` [ethyl butanoate] has a flash point of 24.00 °C.
In the case of `CCOC(N)=O` [ethyl carbamate], the flash point is reported as 92.00 °C.
Compound `CCON=O` [ethyl nitrite] has a flash point of -35.00 °C.
For `CCOC(=O)CC` [ethyl propanoate], the flash point was 12.00 °C.
For `CCC1CCCCC1` [ethylcyclohexane], the flash point was 35.00 °C.
Work on `CCSCC` [ethylsulfanylethane] yielded a flash point of -10.00 °C.
`c1ccc2c(c1)-c1cccc3cccc-2c13` [fluoranthene] gave a flash point of 198.00 °C.
For `O=Cc1ccco1` [furan-2-carbaldehyde], the flash point was 60.00 °C.
Work on `OCc1ccco1` [furan-2-ylmethanol] yielded a flash point of 75.00 °C.
With `CC(=O)OCc1ccco1` [furan-2-ylmethyl acetate] the flash point was 66.00 °C.
`CCCCCCCCCCCCCCCCCCCCC` [henicosane] gave a flash point of 113.00 °C.
For `CCCCCC(C)O` (configuration not stated) [heptan-2-ol], the flash point was 71.00 °C.
With `CCCCCC(C)=O` [heptan-2-one] the flash point was 39.00 °C.
For `CCCCC(=O)CC` [heptan-3-one], the flash point was 46.00 °C.
For `CCCC(=O)CCC` [heptan-4-one], the flash point was 49.00 °C.
`CCCCCCC` [heptane] showed a flash point of -4.00 °C.
`CCCCCCCOC(C)=O` [heptyl acetate] showed a flash point of 68.00 °C.
Compound `CC=CC=CC(=O)O` [hexa-2,4-dienoic acid] has a flash point of 127.00 °C.
Compound `CCCCCCCCCCCCCCCCN` [hexadecan-1-amine] has a flash point of 141.00 °C.
In the case of `CCCCCCCCCCCCCCCC` [hexadecane], the flash point is reported as 135.00 °C.
`CCCCC(C)=O` [hexan-2-one] gave a flash point of 23.00 °C.
For `NCCCCCCN` [hexane-1,6-diamine], the flash point was 81.00 °C.
Work on `OCCCCCCO` [hexane-1,6-diol] yielded a flash point of 102.00 °C.
`CC(O)CCC(C)O` (configuration not stated) [hexane-2,5-diol] showed a flash point of 101.00 °C.
For `O=C(O)CCCCC(=O)O` [hexanedioic acid], the flash point was 191.00 °C.
For `C=CC(=O)OCCCCCC` [hexyl prop-2-enoate], the flash point was 68.00 °C.
For `CCCCCCCCCCCCCCCCCCCC` [icosane], the flash point was 100.00 °C.
Compound `Ic1ccccc1` [iodobenzene] has a flash point of 77.00 °C.
With `O=C=Nc1ccccc1` [isocyanatobenzene] the flash point was 56.00 °C.
`CN` [methanamine] gave a flash point of 0.00 °C.
`CS(=O)(=O)O` [methanesulfonic acid] showed a flash point of 189.00 °C.
`CO` [methanol] showed a flash point of 11.00 °C.
For `COC(=O)c1ccccc1N` [methyl 2-aminobenzoate], the flash point was 104.00 °C.
`COC(=O)CCl` [methyl 2-chloroacetate] showed a flash point of 52.00 °C.
Compound `C=C(C#N)C(=O)OC` [methyl 2-cyanoprop-2-enoate] has a flash point of 79.00 °C.
`COC(=O)C(C)O` (configuration not stated) [methyl 2-hydroxypropanoate] gave a flash point of 51.00 °C.
With `C=C(C)C(=O)OC` [methyl 2-methylprop-2-enoate] the flash point was 10.00 °C.
In the case of `COC(=O)CC(C)=O` [methyl 3-oxobutanoate], the flash point is reported as 70.00 °C.
With `COC(=O)c1ccccc1` [methyl benzoate] the flash point was 83.00 °C.
With `COC=O` [methyl formate] the flash point was -32.00 °C.
`CCCCC(=O)OC` [methyl pentanoate] showed a flash point of 22.00 °C.
Work on `COS(=O)(=O)C(F)(F)F` [methyl trifluoromethanesulfonate] yielded a flash point of 38.00 °C.
`CC1CCCCC1` [methylcyclohexane] gave a flash point of -4.00 °C.
